From BigSolDB 2.1

CCc1occc(=O)c1O
solubility (mole fraction)
Details | 293.15 K | 298.15 K | 303.15 K | 308.15 K | 313.15 K | 318.15 K | 323.15 K | 328.15 K | 333.15 K
in ethanol | 0.0599 | 0.0798 | 0.0974 | 0.133 | 0.174 | 0.227 | 0.291 | 0.367 | 0.459
in water | 0.0021 | 0.0023 | 0.0027 | 0.0033 | 0.004 | 0.0051 | 0.0067 | 0.0089 | 0.0126
